In US6914045B2, “Glycopeptide antibiotics” (Wyeth Holdings Corporation, priority 2001, dated 2005):
Values after ≈ are worked out from the molar mass of the structure shown.

Legend:
Test in all cases: in vitro antibacterial evaluation, MIC by broth dilution
Assay type in all cases: cell-based
Enterococcus sp. = details: broth dilution, 18 hours at 35° C.; for MIC Enterococcus faecalis (ATCC 29212): strain ATCC 29212; for MIC Enterococcus faecium (GC 2243): strain GC 2243; for MIC Enterococcus faecalis (GC 4552): strain GC 4552; for MIC Enterococcus faecalis (GC 4553): strain GC 4553; for MIC Enterococcus faecalis (GC 4554): strain GC 4554; for MIC Enterococcus faecium (GC 4556): strain GC 4556; for MIC Enterococcus faecium (GC 4557): strain GC 4557; for MIC Enterococcus avium (GC 4558): strain GC 4558; for MIC Enterococcus faecalis (GC 6189): strain GC 6189
Method in brief: (§1)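 Read-out: the lowest concentration at which the test strain fails to grow. Serial dilutions (64-0.06 μg/mL) in Muller-Hinton II […], 5×10^5 CFU/mL inoculum, NCCLS M7-A2 procedure.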

Escherichia coli = test system: Escherichia coli
Method in brief: as §1

Staphylococcus sp. = details: broth dilution, 18 hours at 35° C.; for MIC Staphylococcus aureus (GC 1131): strain GC 1131
Method in brief: as §1

Streptococcus sp. = details: broth dilution, 18 hours at 35° C.
Method in brief: as §1

CC(=O)n1cc(C2OCC3OC(OC4C(CO)OC(Oc5ccc(CC6NC(=O)C(C(C)c7ccccc7)NC(=O)CNC(=O)C(CO)NC(=O)C(C(O)C7CNC(=N)N7C7OC(CO)C(O)C(O)C7O)NC(=O)C(C(O)C7CNC(=N)N7)NC6=O)cc5)C(O)C4O)C(O)C(O)C3O2)c2ccccc21 (stereo not drawn) [Example 161]
MIC Enterococcus faecalis (GC 2242) (Enterococcus sp.; Enterococcus faecalis (GC 2242)): 16 µg/mL (≈ 10.9 µM)
MIC Enterococcus faecalis (GC 2691) (Enterococcus sp.; Enterococcus faecalis (GC 2691)): 16 µg/mL (≈ 10.9 µM)
MIC Enterococcus faecalis (GC 3059) (Enterococcus sp.; Enterococcus faecalis (GC 3059)): 16 µg/mL (≈ 10.9 µM)
MIC Enterococcus faecalis (ATCC 29212) (Enterococcus sp.; inoculum 5×10^5 CFU/mL): 16 µg/mL (≈ 10.9 µM)
MIC Enterococcus faecium (GC 2243) (Enterococcus sp.; inoculum 5×10^5 CFU/mL): 16 µg/mL (≈ 10.9 µM)
MIC Enterococcus faecalis (GC 4552) (Enterococcus sp.; inoculum 5×10^5 CFU/mL): 16 µg/mL (≈ 10.9 µM)
MIC Enterococcus faecalis (GC 4553) (Enterococcus sp.; inoculum 5×10^5 CFU/mL): 16 µg/mL (≈ 10.9 µM)
MIC Enterococcus faecalis (GC 4554) (Enterococcus sp.; inoculum 5×10^5 CFU/mL): 16 µg/mL (≈ 10.9 µM)
MIC Enterococcus faecium (GC 4556) (Enterococcus sp.; inoculum 5×10^5 CFU/mL): 16 µg/mL (≈ 10.9 µM)
MIC Enterococcus faecium (GC 4557) (Enterococcus sp.; inoculum 5×10^5 CFU/mL): 8 µg/mL (≈ 5.46 µM)
MIC Enterococcus avium (GC 4558) (Enterococcus sp.; inoculum 5×10^5 CFU/mL): 16 µg/mL (≈ 10.9 µM)
MIC Enterococcus faecalis (GC 6189) (Enterococcus sp.; inoculum 5×10^5 CFU/mL): 16 µg/mL (≈ 10.9 µM)
MIC Enterococcus faecalis (ATCC 29212) (Enterococcus sp.): 16 µg/mL (≈ 10.9 µM)
MIC Enterococcus faecalis (GC 2242) (Enterococcus sp.; strain GC 2242): 16 µg/mL (≈ 10.9 µM)
MIC Enterococcus faecium (GC 2243) (Enterococcus sp.): 16 µg/mL (≈ 10.9 µM)
MIC Enterococcus faecalis (GC 2691) (Enterococcus sp.; strain GC 2691): 16 µg/mL (≈ 10.9 µM)
MIC Enterococcus faecalis (GC 3059) (Enterococcus sp.; strain GC 3059): 16 µg/mL (≈ 10.9 µM)
MIC Enterococcus faecalis (GC 4552) (Enterococcus sp.): 16 µg/mL (≈ 10.9 µM)
MIC Enterococcus faecalis (GC 4553) (Enterococcus sp.): 16 µg/mL (≈ 10.9 µM)
MIC Enterococcus faecalis (GC 4554) (Enterococcus sp.): 16 µg/mL (≈ 10.9 µM)
MIC Enterococcus faecium (GC 4556) (Enterococcus sp.): 16 µg/mL (≈ 10.9 µM)
MIC Enterococcus faecium (GC 4557) (Enterococcus sp.): 8 µg/mL (≈ 5.46 µM)
MIC Enterococcus avium (GC 4558) (Enterococcus sp.): 16 µg/mL (≈ 10.9 µM)
MIC Enterococcus faecalis (GC 6189) (Enterococcus sp.): 16 µg/mL (≈ 10.9 µM)
MIC Escherichia coli (ATCC 25922) (Escherichia coli; strain ATCC 25922, 18 hours at 35° C.): >64 µg/mL
MIC Escherichia coli (GC 4559) (Escherichia coli; strain GC 4559, 18 hours at 35° C.): >64 µg/mL
MIC Escherichia coli (GC 4560) (Escherichia coli; strain GC 4560, 18 hours at 35° C.): 2 µg/mL (≈ 1.37 µM)
MIC Staphylococcus aureus (GC 1131) (Staphylococcus sp.; inoculum 5×10^5 CFU/mL): 8 µg/mL (≈ 5.46 µM)
MIC Staphylococcus aureus (ATCC 29213) (Staphylococcus sp.; strain ATCC 29213): 4 µg/mL (≈ 2.73 µM)
MIC Staphylococcus aureus (GC 1131) (Staphylococcus sp.): 8 µg/mL (≈ 5.46 µM)
MIC Staphylococcus aureus (GC 3051) (Staphylococcus sp.; strain GC 3051): 8 µg/mL (≈ 5.46 µM)
MIC Staphylococcus aureus (GC 3053) (Staphylococcus sp.; strain GC 3053): 8 µg/mL (≈ 5.46 µM)
MIC Staphylococcus aureus (GC 4541) (Staphylococcus sp.; strain GC 4541): 4 µg/mL (≈ 2.73 µM)
MIC Staphylococcus aureus (GC 4542) (Staphylococcus sp.; strain GC 4542): 4 µg/mL (≈ 2.73 µM)
MIC Staphylococcus aureus-SMITH (GC 4543) (Staphylococcus sp.; strain GC 4543): 4 µg/mL (≈ 2.73 µM)
MIC Staphylococcus aureus (GC 4544) (Staphylococcus sp.; strain GC 4544): 8 µg/mL (≈ 5.46 µM)
MIC Staphylococcus aureus (GC 4545) (Staphylococcus sp.; strain GC 4545): 4 µg/mL (≈ 2.73 µM)
MIC Staphylococcus haemolyticus (GC 4546) (Staphylococcus sp.; strain GC 4546): 4 µg/mL (≈ 2.73 µM)
MIC Coagulase Negative Staphylococcus (GC 4547) (Staphylococcus sp.; strain GC 4547): 4 µg/mL (≈ 2.73 µM)
MIC Coagulase Negative Staphylococcus (GC 4548) (Staphylococcus sp.; strain GC 4548): 2 µg/mL (≈ 1.37 µM)
MIC Coagulase Negative Staphylococcus (GC 4549) (Staphylococcus sp.; strain GC 4549): 2 µg/mL (≈ 1.37 µM)
MIC Coagulase Negative Staphylococcus (GC 4551) (Staphylococcus sp.; strain GC 4551): 8 µg/mL (≈ 5.46 µM)
MIC Coagulase Negative Staphylococcus (GC 6257) (Staphylococcus sp.; strain GC 6257): 2 µg/mL (≈ 1.37 µM)
MIC Staphylococcus aureus-SMITH (GC 4543) (Staphylococcus sp.; strain SMITH GC 4543): 4 µg/mL (≈ 2.73 µM)
MIC Streptococcus agalactiae (GC 4564) (Streptococcus sp.; Streptococcus agalactiae (GC 4564)): 1 µg/mL (≈ 0.683 µM)
MIC Streptococcus pneumoniae (ATCC 6301) (Streptococcus sp.; Streptococcus pneumoniae (ATCC 6301)): 0.5 µg/mL (≈ 0.341 µM)
MIC Streptococcus pneumoniae (GC 1894) (Streptococcus sp.; Streptococcus pneumoniae (GC 1894)): 0.12 µg/mL (≈ 0.0819 µM)
MIC Streptococcus pneumoniae (GC 4565) (Streptococcus sp.; Streptococcus pneumoniae (GC 4565)): 0.5 µg/mL (≈ 0.341 µM)
MIC Streptococcus pyogenes (GC 4563) (Streptococcus sp.; Streptococcus pyogenes (GC 4563)): 1 µg/mL (≈ 0.683 µM)
MIC Streptococcus pneumoniae (ATCC 6301) (Streptococcus sp.; strain ATCC 6301): 0.5 µg/mL (≈ 0.341 µM)
MIC Streptococcus pneumoniae (GC 1894) (Streptococcus sp.; strain GC 1894): 0.12 µg/mL (≈ 0.0819 µM)
MIC Streptococcus pyogenes (GC 4563) (Streptococcus sp.; strain GC 4563): 1 µg/mL (≈ 0.683 µM)
MIC Streptococcus agalactiae (GC 4564) (Streptococcus sp.; strain GC 4564): 1 µg/mL (≈ 0.683 µM)
MIC Streptococcus pneumoniae (GC 4565) (Streptococcus sp.; strain GC 4565): 0.5 µg/mL (≈ 0.341 µM)
